Among the test systems are MDA-MB-231 breast; BT-549 breast; ACHN renal; OVCAR-5 ovarian; NCI-H226 lung; SNB-75 CNS; NCI-H23 lung; SN12C renal; A549 NSCLC; A498 renal; MCF7 breast; NCI/ADR-RES ovarian; HS 578T breast; UACC-257 melanoma; HL-60(TB) leukemia; KM12 colon.
What all share (assay): inhibition of tumour cell growth, NCI panel, 48 h

Values joined by “and” are separate entries in the source; they are usually repeats but may differ in a detail not shown here. Identical values can stand only once.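 These data come from cells grown in 96-well plates and exposed to compound for 48 hours at five concentrations. GI50 marks 50% less growth. TGI: concentration producing complete growth inhibition.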

Here are results for eight molecules from PubChem BioAssay (NCI).

Consider `Cc1nc(Nc2ccc(F)cc2)c2sc(=S)n(-c3ccc(F)cc3)c2n1`, for which the TGI was 26.9 µM in the experiment with MDA-MB-231 breast; 27.1 µM in the experiment with BT-549 breast; 27 µM with ACHN renal; 36.3 µM with OVCAR-5 ovarian; 33.5 µM in the experiment on NCI-H226 lung; 29.6 µM with SNB-75 CNS. Further, the TGI in the experiment with NCI-H23 lung came out at 16.9 µM; in the experiment with SN12C renal, 27 µM; in the experiment with A549 NSCLC, 29.5 µM; in the experiment on A498 renal, 33.4 µM; in the experiment with MCF7 breast, 18.7 µM; in the experiment with NCI/ADR-RES ovarian, 37.3 µM. The TGI was found to be 37.7 µM in the experiment with HS 578T breast, 26.2 µM in the experiment on UACC-257 melanoma, 74.1 µM in the experiment with HL-60(TB) leukemia and 28.2 µM in the experiment on KM12 colon.
For the molecule `CC(=O)OC1COC(n2nc(/C=C/c3ccc(Cl)cc3)c(=O)n(/N=C/c3ccccc3)c2=S)C(OC(C)=O)C1OC(C)=O` (stereo unspecified), the TGI with MDA-MB-231 breast, with BT-549 breast, with ACHN renal, with OVCAR-5 ovarian, in the experiment with NCI-H226 lung and with SNB-75 CNS was greater than 100 µM throughout. In addition, the TGI in the experiment on NCI-H23 lung, in the experiment with SN12C renal, in the experiment with A549 NSCLC, in the experiment with A498 renal, with MCF7 breast and in the experiment with NCI/ADR-RES ovarian was greater than 100 µM in each case. Also, the TGI with HS 578T breast, in the experiment with UACC-257 melanoma, with HL-60(TB) leukemia and in the experiment with KM12 colon was greater than 100 µM each time.
As for `N=C(N)C(N=Nc1ccccc1)C(N)=O` (stereo unspecified), the TGI in the experiment on MDA-MB-231 breast, with BT-549 breast, with ACHN renal, in the experiment on OVCAR-5 ovarian, in the experiment on NCI-H226 lung and with SNB-75 CNS was greater than 100 µM each time. For the same molecule, the TGI with NCI-H23 lung, with SN12C renal, in the experiment with A549 NSCLC, with A498 renal, in the experiment on MCF7 breast and in the experiment with NCI/ADR-RES ovarian was greater than 100 µM in each case. In addition, the TGI in the experiment with HS 578T breast, in the experiment with UACC-257 melanoma, in the experiment with HL-60(TB) leukemia and in the experiment with KM12 colon was greater than 100 µM each time.
For the molecule `Cc1ccc2cc3c(ccc4ccccc43)c3c2c1CC3`, the TGI in the experiment with MDA-MB-231 breast, with BT-549 breast, in the experiment with ACHN renal, in the experiment with OVCAR-5 ovarian, in the experiment on NCI-H226 lung and in the experiment with SNB-75 CNS was greater than 100 µM throughout. Moreover, the TGI in the experiment on NCI-H23 lung is greater than 100 µM; in the experiment on SN12C renal it was greater than 100 µM; in the experiment with A549 NSCLC it was greater than 100 µM; in the experiment with A498 renal, greater than 100 µM; with MCF7 breast it was greater than 18.3 µM; in the experiment on NCI/ADR-RES ovarian, greater than 100 µM. The TGI in the experiment on HS 578T breast, in the experiment with UACC-257 melanoma, with HL-60(TB) leukemia and with KM12 colon was greater than 100 µM each time. The GI50 in the experiment on OVCAR-5 ovarian and with A498 renal was greater than 100 µM throughout.
On to `CCCc1c(O)c(=O)c2c(OC)cc(OC)c3c4c(OC)cc(OC)c5c(=O)c(O)c(CCC)c(c1c23)c54`, for which the TGI in the experiment on MDA-MB-231 breast worked out at 7.09 µM; in the experiment with BT-549 breast it was 10.1 µM; in the experiment with ACHN renal, 3.58 µM; with OVCAR-5 ovarian, 19.4 µM; in the experiment with NCI-H226 lung, 10.9 µM; in the experiment on SNB-75 CNS, 3.53 µM. For the same molecule, the TGI with NCI-H23 lung came to 3.16 µM; with SN12C renal it was 22.3 µM; in the experiment on A549 NSCLC, 13.1 µM; in the experiment with A498 renal it was 11.9 µM; with MCF7 breast it was 15.3 µM; with NCI/ADR-RES ovarian it was 3.55 µM. The TGI with HS 578T breast worked out at 72.2 µM; in the experiment on UACC-257 melanoma, 7.06 µM; with HL-60(TB) leukemia, 4.64 µM; in the experiment with KM12 colon it was 5.41 µM.
On to `O=C(N/N=C/c1ccc([N+](=O)[O-])cc1)c1cccc2nc3ccccc3nc12`, for which the TGI is greater than 100 µM in the experiment on MDA-MB-231 breast; greater than 100 µM in the experiment with BT-549 breast; greater than 73.8 µM in the experiment on ACHN renal; greater than 100 µM with OVCAR-5 ovarian; greater than 100 µM with NCI-H226 lung; greater than 100 µM in the experiment on SNB-75 CNS. Moreover, the TGI in the experiment on NCI-H23 lung, in the experiment with SN12C renal, in the experiment on A549 NSCLC, in the experiment on A498 renal, in the experiment with MCF7 breast and with NCI/ADR-RES ovarian was greater than 100 µM each time. In addition, the TGI was 73.6 µM with HS 578T breast, greater than 100 µM with UACC-257 melanoma, greater than 100 µM with HL-60(TB) leukemia and greater than 100 µM in the experiment on KM12 colon.
As to `OCC1OC(NCCNCCNC2OC(CO)C(O)C(O)C2O)C(O)C(O)C1O` (stereo unspecified), the TGI in the experiment with MDA-MB-231 breast, in the experiment with BT-549 breast, with ACHN renal, with OVCAR-5 ovarian, in the experiment with NCI-H226 lung and in the experiment on SNB-75 CNS was greater than 100 µM in each case. Further, the TGI in the experiment on NCI-H23 lung, in the experiment with SN12C renal, in the experiment with A549 NSCLC, with A498 renal, in the experiment with MCF7 breast and with NCI/ADR-RES ovarian was greater than 100 µM in each case. Moreover, the TGI was greater than 100 µM with HS 578T breast; greater than 100 µM in the experiment on UACC-257 melanoma; greater than 100 µM in the experiment on HL-60(TB) leukemia; 22.5 µM and > 100 µM in the experiment with KM12 colon. In addition, the GI50 in the experiment on KM12 colon was 10.4 µM and 43.3 µM and > 100 µM.
For `COc1ccc(N=Nc2ccc3oc(=O)c(C(=O)Nc4ccccc4)cc3c2)cc1`, the TGI in the experiment with MDA-MB-231 breast, in the experiment with BT-549 breast, in the experiment with ACHN renal, in the experiment with OVCAR-5 ovarian, in the experiment on NCI-H226 lung and with SNB-75 CNS was greater than 10 µM each time. Further, the TGI in the experiment on NCI-H23 lung, in the experiment on SN12C renal, with A549 NSCLC, in the experiment on A498 renal, in the experiment with MCF7 breast and with NCI/ADR-RES ovarian was greater than 10 µM throughout. Besides, the TGI in the experiment with HS 578T breast, in the experiment on UACC-257 melanoma, in the experiment on HL-60(TB) leukemia and with KM12 colon was greater than 10 µM in each case.
